Tests used:
[1] = test system: L1210 murine leukaemia cells; experiment: In vitro cytotoxicity, Microculture Tetrazolium Assay, L1210; assay type: cell-based; settings: L1210, 2 days incubation; read-out: IC50 (concentration of cytotoxic agent which inhibits proliferation of the treated cells by 50%)
Procedure: (§1) Two cell lines were used • 1 murine leukaemia: L1210, • 1 human epidermoid carcinoma: KB-3-1
(§2) The cells are cultured in RPMI 1640 complete culture medium containing 10% foetal calf serum, 2 mM glutamine, 50 units/ml of penicillin, 50 μg/ml of streptomycin and 10 mM Hepes, pH=7.4. The cells are distributed on microplates and are exposed to the cytotoxic compounds. The cells are then incubated for 2 days (L1210) or 4 days (KB-3-1). The number of viable cells is then quantified by a colorimetric assay, the Microculture Tetrazolium Assay (Cancer Res. 1987, 47, 939–942).
(§3) The results are expressed in terms of the IC50 (the concentration of cytotoxic agent which inhibits proliferation of the treated cells by 50%).

[2] = test system: KB-3-1 human epidermoid carcinoma cells; experiment: In vitro cytotoxicity, Microculture Tetrazolium Assay, KB-3-1; assay type: cell-based; settings: KB-3-1, 4 days incubation; read-out: IC50 (concentration of cytotoxic agent which inhibits proliferation of the treated cells by 50%)
Procedure: as §1, §2, §3

[3] = test system: C38 adenocarcinoma of the colon; experiment: In vivo anti-tumour activity with respect to C38 adenocarcinoma of the colon; settings: i.v. once per week for 3 weeks (days 10, 17, 24), s.c. C38 tumour in B6D2F1 mice
Procedure: Anti-tumour Activity with Respect to C38 Adenocarcinoma of the Colon
Tumour fragments of C38 adenocarcinoma of the colon weighing approximately 30 mg were implanted under the skin of B6D2F1 mice (Iffa Credo, France) on day 0.
After growth of the tumour, the mice were divided into control (18 animals) and treated (6 or 7 animals) groups, which were homogeneous with respect to tumour size. The products were administered by the i.v. route once per week for 3 weeks (on days 10, 17 and 24), at their Maximum Tolerated Dose (MTD), MTD/2 and MTD/4.
The tumours were measured twice a week and the tumour volumes were calculated according to the following formula: volume (mm^3)=length (mm)×breadth (mm^2)/2. The anti-tumour activity is expressed as % T/C: […]
V0 and Vt being the initial volume of the tumour and its volume at measurement time t, respectively.
The optimum dose is the dose giving the lowest T/C value without toxicity (early death or weight loss greater than 20%).

[4] = general statement, limits bioavailability and i.v. use; cited from earlier work

Question: What does the source list for `COc1cc2c(c3c1c(=O)c1cc4ccccc4cc1n3C)[C@@H](OC(C)=O)[C@@H](OC(=O)C=Cc1ccccc1)C(C)(C)O2` (racemic) [Example 2, (±)-cis-1-Acetoxy-2-cinnamoyloxy-6-methoxy-3,3,14-trimethyl-1,2,3,14-tetrahydro-1H-benzo[b]pyrano[3,2-h]acridin-7-one]?
Answer: IC50 [1]: 590 nM; IC50 [2]: 151 nM

Question: With `COc1cc2c(c3c1c(=O)c1cc4ccccc4cc1n3C)[C@@H](OC(C)=O)[C@@H](OC(=O)C=Cc1ccc(Cl)c(Cl)c1)C(C)(C)O2` (single isomer, unassigned) [Example 33, (±)-cis-1-Acetoxy-2-(3,4-dichlorocinnamoyloxy)-6-methoxy-3,3,14-trimethyl-1,2,3,14-tetrahydro-1H-benzo[b]pyrano[3,2-h]acridin-7-one (Enantiomer β)] as the compound, how does the “anti-tumour activity (% T/C)” value ([3]; optimum dose of 4 mg/kg) read?
Answer: 50%

Question: With `COc1cc2c(c3c1c(=O)c1ccccc1n3C)C=CC(C)(C)O2` [acronycine, reference compound] as the compound, how does the solubility [4] read?
Answer: low

Question: And the “anti-tumour activity (% T/C)” value ([3]; optimum dose of 100 mg/kg)?
Answer: 27%

— patent US7144891B2, “Benzo[b ]pyrano[3,2- h ]acridin-7-one cinnamate compounds” (Les Laboratoires Servier, priority 2004, dated 2006)
